Literature values as cited in patent US9200991B2, “Sorptive extraction layer for immobilized liquid extraction” (Tecan Trading AG, priority 2013, dated 2015).

SMILES: CC(C)Cc1ccc(C(C)C(=O)O)cc1 (stereo not shown) [Ibuprofen]
- reported logP: approximately 3.8
